In patent US6677333B1, “2H-phthalazin-1-one derivatives and drug containing its derivatives as active ingredient” (Ono Pharmaceutical Co., Ltd., priority 1999, dated 2004):
Counter-ions that a name gives are not always drawn.

Molecular target: T1, PARP (Homo sapiens, UniProt P09874)
T1 construct: purchased TREVIGEN
Experiment: Enzyme assay in vitro (PARP inhibitory activity)
Type: biochemical
Conditions: PARP (TREVIGEN), activated DNA, 10 minutes reaction, 100% of control = distilled water; example 5 tested as trifluoro acetate
Protocol: The below procedure was carried out with 96 well plate. The reaction mixture contained 50 mM Tris/HCl (pH 8.0, WAKO), 10 mM MgCl2, 5 mM dithiothreitol (sigma), and 0.5 mg/mL activated DNA in 80 μL. The 10 μL of test compound was added to the reaction mixture and the reaction was started by addition of 10 μL of […] PARP (TREVIGEN). The reaction was terminated at 10 minutes by addition of 100 μL of 20% trichloroacetic acid. The reaction product was collected on a glass fiber filter (GF/C, PACKARD). The radioactivity was measured by topcount (PACKARD). Inhibitory activity of the compound was represented by 50% inhibitory concentration (IC50) calculated 100% of control (distilled water).

T1 sequence (P09874 whole entry): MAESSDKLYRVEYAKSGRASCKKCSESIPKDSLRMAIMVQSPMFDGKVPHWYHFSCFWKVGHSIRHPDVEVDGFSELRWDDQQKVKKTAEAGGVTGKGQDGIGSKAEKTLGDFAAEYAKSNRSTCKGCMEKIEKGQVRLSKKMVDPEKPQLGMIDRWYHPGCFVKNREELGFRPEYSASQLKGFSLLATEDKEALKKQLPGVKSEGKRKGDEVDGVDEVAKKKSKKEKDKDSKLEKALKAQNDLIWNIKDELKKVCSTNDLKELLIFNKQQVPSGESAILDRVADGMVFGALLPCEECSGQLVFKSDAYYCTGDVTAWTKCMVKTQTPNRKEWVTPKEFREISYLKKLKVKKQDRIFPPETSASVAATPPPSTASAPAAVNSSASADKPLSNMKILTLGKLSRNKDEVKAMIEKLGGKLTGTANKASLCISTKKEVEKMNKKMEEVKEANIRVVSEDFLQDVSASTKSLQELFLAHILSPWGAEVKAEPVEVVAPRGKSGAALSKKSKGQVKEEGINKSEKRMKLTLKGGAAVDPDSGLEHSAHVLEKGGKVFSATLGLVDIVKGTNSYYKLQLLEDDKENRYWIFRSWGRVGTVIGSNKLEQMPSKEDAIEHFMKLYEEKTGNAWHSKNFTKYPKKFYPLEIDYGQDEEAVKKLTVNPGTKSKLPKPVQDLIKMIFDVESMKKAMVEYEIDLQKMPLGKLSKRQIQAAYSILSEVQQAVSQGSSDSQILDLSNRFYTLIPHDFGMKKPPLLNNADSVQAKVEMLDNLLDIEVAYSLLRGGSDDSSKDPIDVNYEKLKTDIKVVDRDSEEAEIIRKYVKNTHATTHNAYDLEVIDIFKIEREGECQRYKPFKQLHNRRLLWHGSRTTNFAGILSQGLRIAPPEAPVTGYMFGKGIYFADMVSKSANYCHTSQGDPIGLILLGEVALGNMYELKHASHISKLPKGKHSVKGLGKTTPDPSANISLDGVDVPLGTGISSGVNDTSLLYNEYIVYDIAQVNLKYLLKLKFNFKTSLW

| SMILES | IC50 |
| --- | --- |
| NCCSCC(=O)Nc1cccc(-c2n[nH]c(=O)c3ccccc23)c1 [5(10), 4-(3-(2-(2-Aminoethylthio)acetylamino)phenyl)-2H-phthalazin-1-one Hydrochloride] | 0.05 µM |
| NCCCCC(=O)Nc1cccc(-c2n[nH]c(=O)c3ccccc23)c1 [compound 5] | 0.042 µM |
